Molecular target: T1, CYP11A1 (Homo sapiens, UniProt P05108)
T1 construct: endogenous in cells; host or cells: NCI-H295R
T1 sequence (P05108 40-521): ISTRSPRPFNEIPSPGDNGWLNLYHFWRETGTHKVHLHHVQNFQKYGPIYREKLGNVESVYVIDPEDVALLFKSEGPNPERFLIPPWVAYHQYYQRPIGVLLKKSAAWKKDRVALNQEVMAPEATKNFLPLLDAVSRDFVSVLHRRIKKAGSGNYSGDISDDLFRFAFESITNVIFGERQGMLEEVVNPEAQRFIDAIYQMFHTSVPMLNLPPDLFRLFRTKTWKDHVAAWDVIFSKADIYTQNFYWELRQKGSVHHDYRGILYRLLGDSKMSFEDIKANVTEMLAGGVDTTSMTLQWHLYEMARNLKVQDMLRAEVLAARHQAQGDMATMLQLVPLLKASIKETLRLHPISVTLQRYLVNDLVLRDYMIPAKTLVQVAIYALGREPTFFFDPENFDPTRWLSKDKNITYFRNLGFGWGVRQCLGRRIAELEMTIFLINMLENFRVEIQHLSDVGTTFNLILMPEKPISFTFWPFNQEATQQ
Experiment: CYP11A1 inhibition: pregnenolone biosynthesis measured by ELISA in NCI-H295R cells
Format: cell-based
Settings: NCI-H295R cells treated for 24 hours, 10 concentrations in duplicates, read-out: IC50 on CYP11A1 inhibition (Group)
Experimental: The ability of the test compounds to inhibit pregnenolone biosynthesis was measured by enzyme-linked immunosorbent assay (ELISA) detecting pregnenolone (Abnova Pregnenolone ELISA Kit, KA1912). […] To determine the half maximal inhibitory concentration (IC50) of the test compounds on CYP11A1 inhibition, the cells were treated for 24 hours with increasing concentrations of the test compound. The final DMSO concentration was 0.4%. Medium samples were diluted 1:6 and pregnenolone amounts determined with ELISA. Manufacturer's recommended protocols were used and pregnenolone (Sigma-Aldrich, P9129) standards were prepared in cell culture medium. Absorbance (A450) was measured with Envision plate reader (PerkinElmer). All the test compounds were studied at 10 concentrations in duplicates.

Q: COc1cc(F)ccc1-c1cncc(C(=O)N2CCOc3ccccc32)c1 [Compound 45, (2,3-Dihydro-4H-benzo[b][1,4]oxazin-4-yl)(5-(4-fluoro-2-methoxyphenyl)-pyridin-3-yl)methanone] was tested. Which IC50 did it give?
A: The IC50 was 51 to 200 nM.

Q: With O=C(c1cncc(-c2ccccc2)n1)N1CCCc2ncccc21 [Compound 37, (3,4-Dihydro-1,5-naphthyridin-1(2H)-yl)(6-phenylpyrazin-2-yl)methanone] as the molecule, how does the IC50 read?
A: Its IC50 is < 50 nM.

Q: With O=C(c1cnnc(-c2ccc(F)cc2)c1)N1CCOc2ccccc21 [Compound 40, (2,3-Dihydro-4H-benzo[b][1,4]oxazin-4-yl)(6-(4-fluorophenyl)pyridazin-4-yl)-methanone] as the molecule, how does the IC50 read?
A: Its IC50 is < 50 nM.

Q: O=C(c1cncc(C2=CCOCC2)c1)N1CCOc2ccccc21 [Compound 66, (5-(3,6-Dihydro-2H-pyran-4-yl)pyridin-3-yl)(2,3-dihydro-4H-benzo[b][1,4]-oxazin-4-yl)methanone] was tested. Which IC50 did it give?
A: The IC50 was 201 to 2500 nM.

Q: With CC1COc2ccccc2N1C(=O)c1cncc(-c2ccc(F)cc2)n1 (stereo not shown) [Compound 26, (6-(4-Fluorophenyl)pyrazin-2-yl)(3-methyl-2,3-dihydro-4H-benzo[b][1,4]oxazin-4-yl)methanone] as the molecule, how does the IC50 read?
A: Its IC50 is < 50 nM.

Q: O=C(c1cncc(-c2ccc(F)cc2)c1)N1CCCc2ccccc21 [Compound 16, (3,4-Dihydroquinolin-1(2H)-yl)(5-(4-fluorophenyl)pyridin-3-yl)methanone] was tested. Which IC50 did it give?
A: The IC50 was < 50 nM.

Q: O=C(c1cncc(-c2cccc(C(F)(F)F)c2)c1)N1CCOc2ccccc21 [Compound 48, (2,3-Dihydro-4H-benzo[b][1,4]oxazin-4-yl)(5-(3-(trifluoromethyl)phenyl)pyridin-3-yl)methanone] was tested. Which IC50 did it give?
A: Its IC50 is 51 to 200 nM.

Q: With O=C(c1cnnc(-c2ccccc2)c1)N1CCCc2ccccc21 [Compound 52, (3,4-Dihydroquinolin-1(2H)-yl)(6-phenylpyridazin-4-yl)methanone] as the molecule, how does the IC50 read?
A: The IC50 was 51 to 200 nM.

Q: With Cc1c(C(=O)N2CCOc3ccccc32)cncc1-c1ccccc1 [Compound 3, (2,3-Dihydro-4H-benzo[b][1,4]oxazin-4-yl)(4-methyl-5-phenylpyridin-3-yl)-methanone] as the molecule, how does the IC50 read?
A: The IC50 was 51 to 200 nM.

Q: How did the IC50 turn out when O=C(c1cncc(-c2ccc([N+](=O)[O-])cc2)c1)N1CCOc2ccccc21 [Compound 32, (2,3-Dihydro-4H-benzo[b][1,4]oxazin-4-yl)(5-(4-nitrophenyl)pyridin-3-yl)-methanone] was run?
A: The IC50 was < 50 nM.

Q: Which IC50 does the source give for COc1cccc(-c2cncc(C(=O)N3CCCc4ccccc43)c2)c1 [Compound 38, (3,4-Dihydroquinolin-1(2H)-yl)(5-(3-methoxyphenyl)pyridin-3-yl)methanone] here?
A: Its IC50 is < 50 nM.

Q: With O=C(c1cncc(-c2ccc(F)c(F)c2)c1)N1CCOc2ccccc21 [Compound 19, (5-(3,4-Difluorophenyl)pyridin-3-yl)(2,3-dihydro-4H-benzo[b][1,4]oxazin-4-yl)-methanone] as the molecule, how does the IC50 read?
A: The IC50 was < 50 nM.

Q: Which IC50 does the source give for O=C(c1cncc(-c2ccc(F)cc2)n1)N1CCOc2ccccc21 [Compound 20, (2,3-Dihydro-4H-benzo[b][1,4]oxazin-4-yl)(6-(4-fluorophenyl)pyrazin-2-yl)-methanone] here?
A: Its IC50 is < 50 nM.

Q: Which IC50 does the source give for O=S(=O)(c1cncc(-c2ccc(F)cc2)c1)N1CCCc2ccccc21 [Compound 47, 1-((5-(4-Fluorophenyl)pyridin-3-yl)sulfonyl)-1,2,3,4-tetrahydroquinoline] here?
A: The IC50 was 51 to 200 nM.

Q: COc1cccc2c1CCCN2C(=O)c1cncc(-c2ccccc2)c1 [Compound 59, (5-Methoxy-3,4-dihydroquinolin-1(2H)-yl)(5-phenylpyridin-3-yl)methanone] was tested. Which IC50 did it give?
A: Its IC50 is 201 to 2500 nM.

Q: How did the IC50 turn out when O=C(c1cncc(-c2ccc(F)cc2)c1)N1CCOc2ccccc21 [Compound 24, (2,3-Dihydro-4H-benzo[b][1,4]oxazin-4-yl)(5-(4-fluorophenyl)pyridin-3-yl)-methanone] was run?
A: The IC50 was < 50 nM.

Q: For O=S(=O)(c1cncc(-c2ccc(F)cc2)c1)N1CCOc2ccccc21 [Compound 46, 4-((5-(4-Fluorophenyl)pyridin-3-yl)sulfonyl)-3,4-dihydro-2H-benzo[b][1,4]-oxazine], which IC50 is on record?
A: Its IC50 is 51 to 200 nM.

Q: How did the IC50 turn out when O=C(c1cncc(-c2ccc(F)cc2)c1)N1CCOC2CCCCC21 (stereo not shown) [Compound 55, (5-(4-Fluorophenyl)pyridin-3-yl)(octahydro-4H-benzo[b][1,4]oxazin-4-yl)-methanone] was run?
A: Its IC50 is 51 to 200 nM.

Q: O=C(c1cncc(-c2ccc(F)c(O)c2)c1)N1CCOc2ccccc21 [Compound 27, (2,3-Dihydro-4H-benzo[b][1,4]oxazin-4-yl)(5-(4-fluoro-3-hydroxyphenyl)-pyridin-3-yl)methanone] was tested. Which IC50 did it give?
A: Its IC50 is < 50 nM.

Q: With Cn1nccc1-c1cncc(C(=O)N2CCOc3ccccc32)n1 [Compound 63, (2,3-Dihydro-4H-benzo[b][1,4]oxazin-4-yl)(6-(1-methyl-1H-pyrazol-5-yl)-pyrazin-2-yl)methanone] as the molecule, how does the IC50 read?
A: Its IC50 is 201 to 2500 nM.

Q: Which IC50 does the source give for Cc1cc(C)n(-c2cncc(C(=O)N3CCCc4ccccc43)n2)n1 [Compound 87, (3,4-Dihydroquinolin-1(2H)-yl)(6-(3,5-dimethyl-1H-pyrazol-1-yl)pyrazin-2-yl)-methanone] here?
A: The IC50 was 51 to 200 nM.

Q: Which IC50 does the source give for O=C1CCN(C(=O)c2cncc(-c3ccccc3)c2)c2ccccc21 [Compound 36, 1-(5-Phenylnicotinoyl)-2,3-dihydroquinolin-4(1H)-one] here?
A: The IC50 was < 50 nM.

Q: How did the IC50 turn out when COc1ccc2c(c1)N(C(=O)c1cncc(-c3ccccc3)c1)CCC2 [Compound 69, (7-Methoxy-3,4-dihydroquinolin-1(2H)-yl)(5-phenylpyridin-3-yl)methanone] was run?
A: The IC50 was 201 to 2500 nM.

Q: How did the IC50 turn out when O=C(Cc1cncc(-c2ccc(F)cc2)c1)N1CCOc2ccccc21 [Compound 86, 1-(2,3-Dihydro-4H-benzo[b][1,4]oxazin-4-yl)-2-(5-(4-fluorophenyl)pyridin-3-yl)ethan-1-one] was run?
A: Its IC50 is 201 to 2500 nM.

Q: For COc1ccc(-c2cncc(C(=O)N3CCCc4ccccc43)n2)cc1 [Compound 14, (3,4-Dihydroquinolin-1(2H)-yl)(6-(4-methoxyphenyl)pyrazin-2-yl)methanone], which IC50 is on record?
A: The IC50 was < 50 nM.

Q: For O=C(c1cncc(-c2ccc(F)cc2)c1)N1CCO[C@@H]2CCCC[C@H]21 [Compound 57, (5-(4-Fluorophenyl)pyridin-3-yl)((4aR,8aR)-octahydro-4H-benzo[b][1,4]oxazin-4-yl)methanone], which IC50 is on record?
A: The IC50 was 201 to 2500 nM.

Q: For O=C(c1cnnc(-c2ccc(F)cc2)c1)N1CCCc2ccccc21 [Compound 30, (3,4-Dihydroquinolin-1(2H)-yl)(6-(4-fluorophenyl)pyridazin-4-yl)methanone], which IC50 is on record?
A: The IC50 was < 50 nM.

Q: Which IC50 does the source give for CC1CCc2ccccc2N1C(=O)c1cnnc(-c2ccc(F)cc2)c1 (stereo not shown) [Compound 64, (6-(4-Fluorophenyl)pyridazin-4-yl)(2-methyl-3,4-dihydroquinolin-1(2H)-yl)-methanone] here?
A: The IC50 was 201 to 2500 nM.

Q: For CN1CCN(c2cncc(C(=O)N3CCOc4ccccc43)n2)CC1 [Compound 78, (2,3-Dihydro-4H-benzo[b][1,4]oxazin-4-yl)(6-(4-methylpiperazin-1-yl)pyrazin-2-yl)methanone], which IC50 is on record?
A: Its IC50 is 201 to 2500 nM.

Q: How did the IC50 turn out when COc1ccc(-c2cncc(C(=O)N3CCCc4ccccc43)c2)cc1 [Compound 18, (3,4-Dihydroquinolin-1(2H)-yl)(5-(4-methoxyphenyl)pyridin-3-yl)methanone] was run?
A: The IC50 was < 50 nM.

Q: Which IC50 does the source give for COc1ccc(-c2cncc(C(=O)N3CCCc4ncccc43)c2)cc1 [Compound 34, (3,4-Dihydro-1,5-naphthyridin-1(2H)-yl)(5-(4-methoxyphenyl)pyridin-3-yl)-methanone] here?
A: Its IC50 is < 50 nM.

— patent US20240124431A1, “2,3-DIHYDRO-4H-BENZO[B][1,4]OXAZIN-4-YL)(5-(PHENYL)-PYRIDIN-3-YL)METHANONE DERIVATIVES AND SIMILAR COMPOUNDS AS CYP11A1 INHIBITORS FOR THE TREATMENT OF PROSTATE CANCER” (ORION CORPORATION, priority 2020, published 2024)
